Measurements reported in ChEMBL document CHEMBL5584232, “Hijacking monopolar spindle 1 (MPS1) for various cancer types by small molecular inhibitors: Deep insights from a decade of research and patents” (Eur J Med Chem, 2024).

What was measured:
CAL-51 [1] = test: Antiproliferative activity against human CAL-51 cells assessed as inhibition of cell growth incubated for 72 hrs by MTT assay; assay type: functional, cell-based; settings: CAL-51, 72 h
[2] = AUC in mouse; assay type: ADME, organism-based; settings: in vivo
COLO 205 = test: Antiproliferative activity against human COLO 205 cells assessed as reduction in cell viability incubated for 48 hrs by MTT assay; assay type: functional, cell-based; settings: COLO 205, 48 h
[3] = Half life in mouse; assay type: ADME, organism-based; settings: in vivo
[4] = AUC in Sprague-Dawley rat at 3 mg/kg, po by LC-MS/MS analysis; assay type: ADME, organism-based; settings: in vivo
[5] = Cmax in ICR mouse at 3 mg/kg, po; assay type: ADME, organism-based; settings: in vivo
[6] = Cmax in Sprague-Dawley rat at 3 mg/kg, po by LC-MS/MS analysis; assay type: ADME, organism-based; settings: in vivo
[7] = AUC in ICR mouse at 3 mg/kg, po and measured after 24 hrs by LC-MS/MS analysis; assay type: ADME, organism-based; settings: in vivo
[8] = Oral bioavailability in ICR mouse at 5 mg/kg by LC-MS/MS analysis; assay type: ADME, organism-based; settings: in vivo
CAL-51 [9] = test: Antiproliferative activity against human CAL-51 cells assessed as reduction in cell viability incubated for 72 hrs by MTT assay; assay type: functional, cell-based; settings: CAL-51, 72 h
[10] = target: T1, Dual specificity protein kinase TTK (Homo sapiens, UniProt P33981); test: Inhibition of MPS1 (unknown origin)
T1 sequence (P33981 whole entry): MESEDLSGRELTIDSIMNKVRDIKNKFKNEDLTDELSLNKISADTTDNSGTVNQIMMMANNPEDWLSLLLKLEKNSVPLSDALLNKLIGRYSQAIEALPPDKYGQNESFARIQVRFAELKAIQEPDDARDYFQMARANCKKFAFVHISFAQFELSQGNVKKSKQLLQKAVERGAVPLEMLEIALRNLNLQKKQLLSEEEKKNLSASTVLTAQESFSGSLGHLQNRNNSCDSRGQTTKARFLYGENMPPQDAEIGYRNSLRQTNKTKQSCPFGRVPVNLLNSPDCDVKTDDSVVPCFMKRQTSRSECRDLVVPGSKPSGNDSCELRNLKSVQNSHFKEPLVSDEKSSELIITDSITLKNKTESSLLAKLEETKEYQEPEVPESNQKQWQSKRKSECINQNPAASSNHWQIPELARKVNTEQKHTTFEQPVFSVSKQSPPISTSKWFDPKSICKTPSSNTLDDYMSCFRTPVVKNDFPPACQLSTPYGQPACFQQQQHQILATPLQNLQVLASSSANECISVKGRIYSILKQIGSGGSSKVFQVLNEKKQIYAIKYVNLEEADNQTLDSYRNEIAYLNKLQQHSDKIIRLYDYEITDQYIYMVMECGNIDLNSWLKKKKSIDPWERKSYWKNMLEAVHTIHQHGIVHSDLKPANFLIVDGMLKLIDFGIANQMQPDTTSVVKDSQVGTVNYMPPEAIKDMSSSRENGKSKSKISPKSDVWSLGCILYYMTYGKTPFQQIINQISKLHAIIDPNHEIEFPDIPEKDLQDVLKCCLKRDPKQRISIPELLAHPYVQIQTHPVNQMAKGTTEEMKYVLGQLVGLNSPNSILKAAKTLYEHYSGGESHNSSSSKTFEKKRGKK

[11] = Oral bioavailability in rat at 1 mg/kg; assay type: ADME, organism-based; settings: in vivo
IGROV-1 [12] = test: Growth inhibition of human IGROV-1 cells measured after 72 hrs by SRB method; assay type: functional
OVCAR-5 = test: Anticancer activity against human OVCAR-5 cells assessed as cell growth inhibition measured after 72 hrs by DAPI staining based analysis; assay type: functional
SK-OV-3 = test: Anticancer activity against human SK-OV-3 cells assessed as cell growth inhibition measured after 72 hrs by DAPI staining based analysis; assay type: functional
OVCAR-8 = test: Anticancer activity against human OVCAR-8 cells assessed as cell growth inhibition measured after 72 hrs by DAPI staining based analysis; assay type: functional
OVCAR-3 = test: Anticancer activity against human OVCAR-3 cells assessed as cell growth inhibition measured after 72 hrs by DAPI staining based analysis; assay type: functional
OVCAR-4 [13] = test: Anticancer activity against human OVCAR-4 cells assessed as cell growth inhibition measured after 72 hrs by DAPI staining based analysis; assay type: functional
OVCAR-4 [14] = test: Growth inhibition of human OVCAR-4 cells measured after 72 hrs by SRB method; assay type: functional
NCI/ADR-RES = test: Anticancer activity against human NCI-ADR-RES cells assessed as cell growth inhibition measured after 72 hrs by DAPI staining based analysis; assay type: functional
IGROV-1 [15] = test: Anticancer activity against human IGROV-1 cells assessed as cell growth inhibition measured after 72 hrs by DAPI staining based analysis; assay type: functional
A549 = test: Antiproliferative activity against human A549 cells assessed as reduction in cell growth incubated for 48 hrs by MTT assay; assay type: functional, cell-based; settings: A549, 48 h
[16] = Intrinsic clearance in human liver microsomes; assay type: ADME, Microsome
[17] = Clearance in Sprague-Dawley rat at 1 mg/kg, iv measured after 24 hrs by LC-MS/MS analysis; assay type: ADME, organism-based; settings: in vivo
[18] = target: Mitogen-activated protein kinase 8 (Homo sapiens, UniProt P45983); test: Inhibition of JNK1 (unknown origin) using ATF2 as substrate after 1 hr by Lanthascreen TR-FRET assay
Chain of Mitogen-activated protein kinase 8 (P45983 whole entry): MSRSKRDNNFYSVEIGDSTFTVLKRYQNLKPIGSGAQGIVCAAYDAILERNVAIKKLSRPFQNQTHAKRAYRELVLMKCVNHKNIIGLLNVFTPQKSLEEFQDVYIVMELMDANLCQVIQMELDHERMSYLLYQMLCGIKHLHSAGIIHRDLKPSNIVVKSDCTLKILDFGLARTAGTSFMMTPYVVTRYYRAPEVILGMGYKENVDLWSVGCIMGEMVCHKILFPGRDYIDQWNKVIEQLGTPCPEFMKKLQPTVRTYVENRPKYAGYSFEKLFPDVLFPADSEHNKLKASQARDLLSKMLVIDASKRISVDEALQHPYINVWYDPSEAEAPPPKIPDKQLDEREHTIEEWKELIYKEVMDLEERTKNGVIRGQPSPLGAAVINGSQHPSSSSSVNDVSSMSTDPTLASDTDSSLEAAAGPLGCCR

[19] = target: Cyclin-dependent kinase 2 (Homo sapiens, UniProt P24941); test: Inhibition of CDK2 (unknown origin)
Aurora kinase A = target: T2, Aurora kinase A (Homo sapiens, UniProt O14965); test: Inhibition of AURORA-A (unknown origin)
T2 sequence (O14965 whole entry): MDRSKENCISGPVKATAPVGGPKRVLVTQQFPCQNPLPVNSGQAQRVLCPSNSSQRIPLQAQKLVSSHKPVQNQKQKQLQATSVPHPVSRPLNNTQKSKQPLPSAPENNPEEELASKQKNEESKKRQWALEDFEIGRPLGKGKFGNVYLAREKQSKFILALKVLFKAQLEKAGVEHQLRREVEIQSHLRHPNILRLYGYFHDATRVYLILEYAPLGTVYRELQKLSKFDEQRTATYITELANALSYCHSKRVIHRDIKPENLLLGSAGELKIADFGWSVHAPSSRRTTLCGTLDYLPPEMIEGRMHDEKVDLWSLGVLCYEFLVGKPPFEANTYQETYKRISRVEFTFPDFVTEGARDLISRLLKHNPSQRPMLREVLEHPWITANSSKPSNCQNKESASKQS

[20] = Metabolic stability in mouse liver microsomes assessed as drug metabolism measured after 30 mins; assay type: ADME, Microsome; settings: read-out: Drug metabolism
[21] = Clearance in rat at 1 mg/kg, po; assay type: ADME, organism-based; settings: in vivo
CYP450 = CYP450 (Homo sapiens, UniProt P04798+P05177+P05181+P08684+P10632+P10635+P11509+P11712+P13584+P20813+P20815+P20853+P24462+P24903+P33260+P33261+P51589+P78329+P98187+Q02928+Q08477+Q16678+Q16696+Q5TCH4+Q6VVX0+Q7Z449+Q8TAV3+Q96SQ9+Q9HB55); test: Inhibition of CYP450 (unknown origin); assay type: ADME, protein assay
HCT-116 = test: Antitumor activity against human HCT-116 cells xenografted in athymic nude BALB/c mouse assessed as reduction in tumor growth at 12.5 mg/kg, ip administered every other day and measured every other day for 16 days; assay type: functional; settings: HCT-116, 384 h, time 16 day, read-out: TGI
MOLT-4 = test: Antiproliferative activity against human MOLT-4 cells assessed as reduction in cell growth incubated for 72 hrs by MTT assay; assay type: functional, cell-based; settings: MOLT-4, 72 h

With CNC(=O)c1ccc(Nc2nc(OC3CCCC3)c3c(-c4cc[nH]n4)c[nH]c3n2)c(OC)c1 the IC50 (CAL-51 [1]) was 0.4 µM.

Compound CCC(=O)N[C@H]1CC[C@@H](n2c(=O)cc(C)c3cnc(Nc4ccc(N5CCN(C(=O)CCCCC#Cc6ccc7c(c6)CN(C6CCC(=O)NC6=O)C7=O)CC5)cc4OC)nc32)CC1 (some centres undefined) has an AUC [2] of 2.33 µM·h, an IC50 (COLO 205) of 0.2 µM and a half-life [3] of 3.2 h.

Compound C[C@H](Oc1cc(C(=O)N(C)C)ccc1Nc1nc(O[C@H]2CC[C@@](C)(O)CC2)c2c(Cl)c[nH]c2n1)C(F)(F)F has an AUC [4] of 26.3 µM·h, a Cmax [5] of 5.2 µM and a Cmax [6] of 4.35 µM. For the same compound, the AUC at 24 h [7] was 22.5 µM·h, the bioavailability [8] was 60% and the IC50 (CAL-51 [9]) was 0.01 µM. The IC50 [10] was 0.0007 µM.

Compound Cn1cc(-c2cc3[nH]nc(-c4cccc(S(N)(=O)=O)c4)c3cc2OC2CCCCC2)cn1 has a bioavailability [11] of 17%.

In the case of O=c1c2cc(Cl)ccc2sc2c(NCCCNCCO)nc3ccccc3c12, the GI50 (IGROV-1 [12]) is reported as 1.6 µM, the TGI (OVCAR-5) is reported as 3.5 µM and the TGI (SK-OV-3) is reported as 3.38 µM. The TGI (OVCAR-8) was 3.32 µM, the TGI (OVCAR-3) was 3.51 µM and the TGI (OVCAR-4 [13]) was 3.23 µM. The GI50 (OVCAR-4 [14]) was 1.6 µM, the TGI (NCI/ADR-RES) was 3.63 µM and the TGI (IGROV-1 [15]) was 3.6 µM.

Work on CCOc1cc2c(-c3cccc(S(N)(=O)=O)c3)n[nH]c2cc1-c1cnn(C)c1 yielded an IC50 (A549) of 0.386 µM.

CCOc1cc(-c2nncn2C)ccc1Nc1ncc2cc(C)nc(NCC(C)(C)C)c2n1 [BOS-172722] showed a CLH [16] of 8 µL/min/µg.

For Cn1cc(-c2cc3[nH]nc(-c4cccc(S(N)(=O)=O)c4)c3cc2NC2CCCCC2)cn1, the clearance [17] was 33 mL/min/kg.

Work on CCOc1ccc2[nH]nc(-c3cccc(NC(C)=O)c3)c2c1 yielded an IC50 [18] of 0.15 µM.

Compound CN(C)C(=O)c1cc2cnc(Nc3ccc(-c4cncn4C)cc3Cl)cc2n1C(=O)OC(C)(C)C has an IC50 [19] of over 100 µM, an IC50 (Aurora kinase A) of over 40 µM and a metabolised at 0.5 h [20] of 28%.

CNC(=O)c1ccc(Nc2nc(O[C@H]3CCOC3)c3c(-c4ccc5nc(C)oc5c4)c[nH]c3n2)c(OC)c1 gave an IC50 (CAL-51 [1]) of 0.018 µM.

Compound CN1CCC(c2ccc(Nc3ncc4c(n3)-n3ccc(C(N)=O)c3CC4)cc2)CC1 has an IC50 [10] of 0.0087 µM.

In the case of CC(=O)Nc1cccc(-c2n[nH]c3cc(-c4cnn(C)c4)c(NC4CCCCC4)cc23)c1, the CL/F [21] is reported as 33 mL/min/kg.

Work on CCc1ccccc1C(C(=O)Nc1ccc2[nH]nc(-c3cccc(S(N)(=O)=O)c3)c2c1)N(C)C (centres undefined) yielded an IC50 (CYP450) of 0.7 µM and an inhibition in vivo at 12.5 mg/kg (HCT-116) of 10%.

In the case of COc1cc(N2CCN(C)CC2)ccc1Nc1ncc2c(n1)-n1ccc(C(=O)Nc3c(C)cccc3C)c1CC2, the IC50 (MOLT-4) is reported as 0.011 µM.
